Consider one molecule from patent publication US20150299648A1, “IMPROVED CULTIVATION MEDIA AND PROCESS FOR IMPROVED PROTEIN PRODUCTION BY PICHIA STRAINS” (priority 2012, published 2015).

Common to all, as to format: cell-based, Pichia pastoris
The test system of test [1] is P. pastoris YGLY21058 strain producing glycosylated insulin precursor (GIP). Description: Screening of sugars and sugar alcohols as osmoprotectants in fed-batch cultivation. How it is done: The P. pastoris YGLY21058 strain was cultivated in 1 L glass bioreactors (DASGIP, Germany). For fermentation in 1 L bioreactor, a vial (1 mL) of RCB (Research Cell Bank) was inoculated into 200 mL of Seed medium in 1 L-baffled flask. The culture incubated at 24° C., while shaking on an orbital shaker at 180 rpm for 48±4 h. The bioreactor was inoculated with a 10% volumetric ratio of seed to initial BSGY medium. Cultivation conditions were following: temperature set at 24±0.5° C., pH controlled at 6.5±0.1 with 30% ammonium hydroxide, dissolved oxygen was maintained at 20% of saturation by cascading agitation rate on the addition of pure oxygen to the fixed airflow rate of 0.7 vvm. After depletion of the initial glycerol (4%), a 50% glycerol solution containing 12.5 mL/L of PTM1 salts (6.5 g FeSO4.7H2O, 2.0 g ZnCl2, 0.6 g CuSO4.5H2O, 3.0 g MnSO4.7H2O, 0.5 g CoCl2.6H2O, 0.2 g NaMoO4.2H2O, 0.2 g biotin, 80 mg NaI, 20 mg H3BO4 per L) was fed constantly at an initial rate of 0.08 h^−1 for 8 h. Induction was initiated after a 30 min starvation phase when methanol was fed. Methanol was fed constantly starting at 1.33 g/L/h under methanol limited condition. Agitation speed was changed from cascade mode with agitation speed and pure oxygen.
For comparisons, each sugar or sugar alcohol was added at 50 g/L in initial batch medium of BSGY. In case of control without sugar supplementation (BSGY medium only), glycosylated insulin precursor (GIP) was detectable at 58 h of induction, but not detected at 80 h of induction due to most likely proteolytic degradation caused by heavy cell lysis (Lanes 1 and 2 of FIG. 2 A).

Test [2] deals with glycoengineered P. pastoris (YGLY13979) strain producing a monoclonal antibody. Description: Effect of maltitol and Mix2 supplements on fed-batch fermentation profile. The settings on record: for Cell lysis: methanol induction phase. As for the experimental part: The osmoprotective effect of maltitol (50 g/L) in combination with a supplement comprising a mixture of nutrients (Mix2) consisting of amino acid (AA1), vitamins (Vit4), trace metal ions (TM4), and basal salts (BSM2) as described in Table 2 was also evaluated using a glycoengineered P. pastoris (YGLY13979) strain producing a monoclonal antibody was cultivated in 1 L bioreactors (Biostat Q-plus, Satorius, Germany).
A P. pastoris YGLY13979 producing a monoclonal antibody was cultivated in 1 L bioreactors (Biostat Q-plus, Satorius, Germany). For fermentation in 1 L bioreactor, a vial (1 mL) of RCB (Research Cell Bank) was inoculated into 200 mL of BSGY medium in 1 L-baffled flask. The culture incubated at 24° C., while shaking on an orbital shaker at 180 rpm for 48±4 h. The bioreactor was inoculated with a 10% volumetric ratio of seed to initial BSGY medium. Cultivation conditions were following: temperature set at 24±0.5° C., pH controlled at 6.5±0.1 with 30% ammonium hydroxide, dissolved oxygen was maintained at 20% of saturation by cascading agitation rate on the addition of pure oxygen to the fixed airflow rate of 0.7 vvm. The fermentation profile of the production strain was examined using four different cultivation conditions after batch phase.
For the control, a 50% glycerol solution containing 12.5 mL/L of PTM1 salts (6.5 g FeSO4.7H2O, 2.0 g ZnCl2, 0.6 g CuSO4.5H2O, 3.0 g MnSO4.7H2O, 0.5 g CoCl2.6H2O, 0.2 g NaMoO4.2H2O, 0.2 g biotin, 80 mg NaI, 20 mg H3BO4 per L) was fed constantly at an initial rate of 0.08 h^−1 for 8 h After depletion of the initial glycerol (4%).
For Mix2, 10 mL AA1, 4 mL Vit4, 4 mL TM4, and 4 mL BSM2 were mixed with 62.5 mL of 80% glycerol and 15.5 mL of water. The Mix2 solution was fed during the glycerol fed-batch period instead of regular glycerol solution, which was used for the control.
For Maltitol, 43.5 mL of 80% matitol solution was added into bioreactor to achieve 50 g/L concentration at the end of glycerol fed-batch phase.
For Maltitol+Mix2, two conditions of Maltitol and Mix2 were combined.
Induction was initiated after a 30 min starvation phase when methanol was fed. Methanol containing 12.5 mL/L of PTM1 salts (6.5 g FeSO4.7H2O, 2.0 g ZnCl2, 0.6 g CuSO4.5H2O, 3.0 g MnSO4.7H2O, 0.5 g CoCl2.6H2O, 0.2 g NaMoO4.2H2O, 0.2 g biotin, 80 mg NaI, 20 mg H3BO4 per L) was fed constantly starting at 1.33 g/L/h under methanol limited condition. Agitation speed was changed from cascade mode with agitation speed and pure oxygen.

The test system of test [3] is P. pastoris YGLY 21058 strain. Description: Fermentability of sorbitol and maltitol determined by HPLC. The following applies: BSGY; maltitol 50 g/L; methanol induction phase. How it is done: The P. pastoris YGLY 21058 strain was cultivated in 1 L bioreactor and 50 g/L of maltitol was mixed in BSGY medium. The samples were taken at the beginning of fermentation, at the end of glycerol fed-batch before adding maltitol, and two different time-points in methanol induction phase, as shown in FIG. 3. The supernatant was separated by the centrifugation at 13,000 rpm for 1 minutes using micro-centrifuge. The samples properly diluted with distilled water were filtered using 0.2 μm-filter and the residual concentrations of sorbitol and maltitol were determined by HPLC using AMINEX HPX-87H column. The residence times (RTs) for sorbitol and maltitol were 11.5 and 9.3 min respectively. The data were shown in FIG. 3 as two independent runs of cultivation.

Each structure is given as a SMILES string. “Also recorded” adds a separate entry of the source.

With `OC[C@@H](O)[C@@H](O[C@H]1O[C@H](CO)[C@@H](O)[C@H](O)[C@H]1O)[C@H](O)[C@@H](O)CO` [Maltitol, 4-O-α-glucopyranosyl-D-sorbitol], in test [1] (2% maltitol, 83 h of post-induction), the “Intact insulin precursor produced” value is on record as “intact protein was produced”. In addition, in test [1] (50 g/L in initial batch BSGY, 80 h of induction), the “Index of cell lysis (double stranded DNA released into culture medium)” value was under 1 mg DNA/L. The “Intact GIP molecule after 80 h-induction (SDS-PAGE)” value in test [1] (50 g/L in initial batch medium of BSGY) is reported as “intact GIP molecule was maintained”. Also, the “Intact GIP produced” value in test [1] (80 h of induction) was 100 mg/L. The “Robustness of Pichia production strains” value in test [1] (methanol induction phase of cultivation) is recorded as “significantly improved the robustness”. For the same molecule, the “Volumetric productivity of GIP/insulin relative to control” value in test [1] (vs control without supplementation) was determined as 2 fold. In test [2] (5% maltitol, 600 mOsm/kg in induction phase), the “Increase of maximum titer of anti-Her2 monoclonal antibody over control culture” value amounted to 120%. Further, the Cell lysis entry in test [2] (vs BSGY control) is recorded as “reduced the cell lysis significantly”; in test [2] (vs BSGY control, listed as maltitol) it was “significantly reduced”. In addition, the “Effective range of concentration in BSGY medium” value in test [2] (to increase and maintain osmolality during induction phase) is given as “higher than 25 g/L”. In addition, in test [2] (vs BSGY control), the Cell yield entry is reported as “slight reduction of cell yield”. Besides, the “Consumption / fermentability in fed-batch fermentation (residual concentration by HPLC)” value in test [3] was “not consumed; also recorded: non-fermentable”.
